Data as given in patent US20250382322A1, “DIAGNOSTICS FOR DETECTING ECTO-5'-NUCLEOTIDASE (CD73)” (EBERHARD KARLS UNIVERSITÄT TÜBINGEN, priority 2022, published 2025).

Experiments:
[1] = target: T1, recombinant soluble human CD73 (Homo sapiens, UniProt P21589, T376A); test: CD73 enzyme inhibition assay with [2,8-3H]AMP, soluble human CD73; assay type: biochemical; conditions: [2,8-3H]AMP (5 μM) as substrate; Ki from IC50 by Cheng-Prusoff; read-out: Human soluble CD73 Ki ± SEM
T1 construct: mature human CD73 (residues 27-549) fused to 6×His-tag at the C-terminus; 6xHis (C); made in house; host or cells: Spodoptera frugiperda Sf9 insect cells (baculovirus, pAcGP67B vector)
T1 sequence (P21589 27-549 T376A): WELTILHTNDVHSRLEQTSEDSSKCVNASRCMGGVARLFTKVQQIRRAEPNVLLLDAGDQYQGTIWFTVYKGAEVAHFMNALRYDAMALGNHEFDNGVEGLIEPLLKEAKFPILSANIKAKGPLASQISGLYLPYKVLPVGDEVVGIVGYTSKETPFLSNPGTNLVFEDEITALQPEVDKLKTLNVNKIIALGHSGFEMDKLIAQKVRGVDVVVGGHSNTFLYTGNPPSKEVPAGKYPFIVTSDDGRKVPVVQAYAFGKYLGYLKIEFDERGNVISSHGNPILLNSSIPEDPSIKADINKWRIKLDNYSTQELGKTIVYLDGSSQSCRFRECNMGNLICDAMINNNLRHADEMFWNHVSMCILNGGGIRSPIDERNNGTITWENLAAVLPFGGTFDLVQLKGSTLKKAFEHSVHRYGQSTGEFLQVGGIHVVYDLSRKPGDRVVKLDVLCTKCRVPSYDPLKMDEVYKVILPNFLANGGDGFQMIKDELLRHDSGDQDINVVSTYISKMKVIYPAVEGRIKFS
Protocol: (§1) Compound 2b, its precursor 1, and 20 were investigated for their CD73-inhibitory potency using tritium-labeled AMP as a substrate.^20 After incubation with CD73, non-hydrolyzed substrate and inorganic phosphate were precipitated using a solution of lanthanum chloride, and the precipitate was separated from the solution containing the reaction product [2,8-^3H]adenosine by filtration through GF/B glass fiber filters (WhatmanTM GE Healthcare, Chicago, IL, USA) using a cell harvester (M-48, Brandel, Gaitherburg, MD, USA). The filtrates (ca. 1.8 mL each) were transferred to scintillation vials, scintillation cocktail ULTIMA Gold XR (PerkinElmer, Waltham, MA, USA) was added (5 mL), and the radioactivity esd quantified by scintillation counting. CD73 preparations were (1) recombinant soluble human CD73,^13 (2) recombinant soluble rat CD73,^21 both expressed in Spodoptera frugiperda 9 (Sf) cells, (3) membrane preparations of MDA-MB-231 cells,^16 a human triple-negative breast cancer cell line with high expression of CD73,^18 and (4) membrane preparations of the 4T1.2 cell line, a mouse CD73-expressing breast cancer cell line.^22 The potency of the compounds was determined by measurements of full concentration-inhibition curves. K values were calcuated from the obtained IC50 values employing the Cheng-Prusoff equation.^23
Human soluble CD73 was expressed in Spodoptera frugiperda (Sf9) insect cells and purified as previously described.^16 The cDNA encoding for the mature human CD73 (residues 27-549) fused to 6×His-tag at the C-terminus (Genbank accession no. NM_002526) corresponding to the natural variant T376A (P21589/VAR_022091, UniProtKB/Swiss-Prot) was ligated into the pAcGP67B vector. For transfection, 1 μl of the recombinant vector (1000 ng/μl) mixed with 2.5 μl of baculovirus genomic DNA ProEasy™ (AB vector, CA, USA) was used to transfect Sf9 cells grown in Insect-XPRESS™ medium (#BE12-7300, Lonza, Switzerland) supplemented with 10 mg/l gentamicin. […]

[2] = target: T2, recombinant soluble rat CD73 (Rattus norvegicus, UniProt P21588); test: CD73 enzyme inhibition assay with [2,8-3H]AMP, soluble rat CD73; assay type: biochemical; conditions: [2,8-3H]AMP (5 μM) as substrate; read-out: Rat soluble CD73 Ki ± SEM
T2 construct: glutathione-S-transferase fusion protein of soluble rat CD73; glutathione-S-transferase (GST); made in house; host or cells: Sf9 insect cells
T2 sequence (P21588 29-551 limits assumed): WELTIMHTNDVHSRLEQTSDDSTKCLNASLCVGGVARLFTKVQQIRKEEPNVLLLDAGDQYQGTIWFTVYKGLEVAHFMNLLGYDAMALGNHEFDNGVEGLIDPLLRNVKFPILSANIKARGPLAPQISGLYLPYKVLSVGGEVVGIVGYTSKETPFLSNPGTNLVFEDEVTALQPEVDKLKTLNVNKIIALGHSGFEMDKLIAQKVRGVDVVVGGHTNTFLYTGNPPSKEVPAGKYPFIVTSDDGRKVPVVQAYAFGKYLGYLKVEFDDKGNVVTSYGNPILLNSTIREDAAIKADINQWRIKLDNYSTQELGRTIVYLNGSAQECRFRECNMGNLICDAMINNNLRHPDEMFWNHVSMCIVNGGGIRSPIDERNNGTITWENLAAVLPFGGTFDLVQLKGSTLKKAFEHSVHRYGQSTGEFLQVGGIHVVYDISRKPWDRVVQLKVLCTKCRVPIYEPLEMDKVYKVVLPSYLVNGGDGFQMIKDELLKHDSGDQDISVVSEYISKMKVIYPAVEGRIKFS
Protocol: as §1, with “equation.^23 […]” for “equation.^23”

| Structure (SMILES) | Ki [1] [nM] | Ki [2] [nM] |
| --- | --- | --- |
| CCCN(Cc1ccc(-c2cn(CCF)nn2)cc1)c1nc(Cl)nc2c1ncn2[C@@H]1O[C@H](COP(=O)(O)CP(=O)(O)O)C(O)C1O (stereo partly shown) [Compound 2] | 1.02 ± 0.11 | 6.09 ± 0.74 |
| O=C(NCCCCCCNC(=O)c1ccc2c(c1)C1(OC2=O)c2ccc(O)cc2Oc2cc(O)ccc21)c1ccc(CNc2nc(Cl)nc3c2ncn3[C@@H]2O[C@H](COP(=O)(O)CP(=O)(O)O)[C@@H](O)[C@H]2O)cc1 [Compound 20, (((((2R,3S,4R,5R)-5-(2-chloro-6-((4-((6-(3′,6′-dihydroxy-3-oxo-3H-spiro[isobenzofuran-1,9′-xanthene]-6-carboxamido)-hexyl)carbamoyl)benzyl)amino)-9H-purin-9-yl)-3,4-dihydroxytetrahydrofuran-2-yl)methoxy)(hydroxy)phosphoryl)methyl)phosphonic acid] | 5.96 ± 0.85 | 18 ± 1.43 |
